Assay results published in patent US20240409536A1, “COMPOUNDS AND METHODS FOR MODULATING SPLICING” (REMIX THERAPEUTICS INC., priority 2021, published 2024).
Counter-ions that a name gives are not always drawn.

Columns and labels:
HTT mRNA = experiment: Gene panel canonical junction qPCR assay, HTT CJ mRNA decrease; type: cell-based, human; conditions: Homo sapiens, canonical junction qPCR, read-out: HTT IC50 (decrease in CJ mRNA levels)
Summary of the method: (§1)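 IC50 values describe loss of canonical-junction transcript, fitted by 4-parameter logistic to percent response derived from fixed ΔCt windows. Read-out: RT-qPCR on lysates of compound-treated K562 or A673 cells, probes overlapping the exon junction, ΔΔCt versus housekeeping gene and DMSO control.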

HiBiT-tagged HTT protein = experiment: HiBiT protein abundance assay, HTT (K562 HiBiT knock-in cells); type: cell-based, human; conditions: 24 hours
Summary of the method: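 K562 cells with endogenous HiBiT knock-in tag, 10-point 3-fold dilutions (top 10 μM final, ≤0.25% DMSO), 24 h at 37 °C. Lytic Nano-Glo HiBiT luminescence, normalized to DMSO and unmodified K562 baselines; IC50 is concentration giving 50% protein abundance from four-parameter fit.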

Target C mRNA = experiment: Gene panel canonical junction qPCR assay, Target C CJ mRNA decrease; type: cell-based; conditions: Homo sapiens, canonical junction qPCR, read-out: Target C IC50 (decrease in CJ mRNA levels)
Summary of the method: as §1

MYB mRNA = experiment: Gene panel canonical junction qPCR assay, MYB CJ mRNA decrease; type: cell-based, human; conditions: Homo sapiens, canonical junction qPCR, read-out: MYB IC50 (decrease in CJ mRNA levels)
Summary of the method: as §1

IC50 (HTT mRNA) [µM]	IC50 (HiBiT-tagged HTT protein) [µM]	IC50 (Target C mRNA) [µM]	IC50 (MYB mRNA) [µM]	SMILES
1 to 10	1 to 10	> 10	0.1 to 1	Cc1cn2cc(NC(=O)c3ccc(N4CCNCC4)c4ccnnc34)cc(C#N)c2n1 [Compound 167, N-{8-cyano-2-methylimidazo[1,2-a]pyridin-6-yl}-5-(piperazin-1-yl)cinnoline-8-carboxamide trifluoroacetic acid salt]
1 to 10	1 to 10	> 10	< 0.1	Cc1cn2cc(NC(=O)c3ccc(N4C[C@H](C)NC5(CC5)C4)c4nccnc34)cc(F)c2n1 [Compound 377]
1 to 10	1 to 10	1 to 10	< 0.1	Cc1cn2cc(NC(=O)c3ccc(N4CC(C)(C)NC(C)(C)C4)c4nccnc34)cc(F)c2n1 [Compound 219, N-{8-fluoro-2-methylimidazo[1,2-a]pyridin-6-yl}-8-(3,3,5,5-tetramethylpiperazin-1-yl)quinoxaline-5-carboxamide]
1 to 10	1 to 10	1 to 10	0.1 to 1	Cc1cn2cc(NC(=O)c3ccc(N4CCC(NC(C)(C)C)CC4)c4ccnnc34)cc(F)c2n1 [Compound 138]
> 10	1 to 10	> 10	1 to 10	CN[C@@H]1CCN(c2ccc(C(=O)Nc3cc(F)c4nc(C)cn4c3)c3nc(OC)cnc23)C1 [Compound 204, (R)—N-{8-fluoro-2-methylimidazo[1,2-a]pyridin-6-yl}-3-methoxy-8-[3-(methylamino)pyrrolidin-1-yl]quinoxaline-5-carboxamide; trifluoroacetic acid]
0.1 to 1	1 to 10	1 to 10	< 0.1	Cc1ccc2c(N3C[C@@H](C)N[C@@H](C)C3)ccc(C(=O)Nc3cc(F)c4nc(C)cn4c3)c2n1 [Compound 214, 5-[(3R,5S)-3,5-dimethylpiperazin-1-yl]-N-{8-fluoro-2-methylimidazo[1,2-a]pyridin-6-yl}-2-methylquinoline-8-carboxamide]
1 to 10	1 to 10	1 to 10	0.1 to 1	Cc1cn2cc(NC(=O)c3ccc(N4CCC(N(C)C)C4)c4ccnnc34)cc(F)c2n1 (stereo not shown) [Compound 134]
0.1 to 1	0.1 to 1	0.1 to 1	< 0.1	COc1cnc2c(C(=O)Nc3cc(F)c4nc(C)cn4c3)ccc(N3C[C@@H](C)N[C@@H](C)C3)c2n1 [Compound 223]
> 10	> 10	> 10	0.1 to 1	Cc1c(O)c(NC(=O)c2ccc(N3CCNCC3)c3ccnnc23)cc2cn(C)nc12 [Compound 181, N-(6-hydroxy-2,7-dimethylindazol-5-yl)-5-(piperazin-1-yl)cinnoline-8-carboxamide]
1 to 10	0.1 to 1	> 10	0.1 to 1	Cc1cn2cc(NC(=O)c3ccc(C4CCN(C)CC4)c4ccnnc34)cc(F)c2n1 [Compound 140]
1 to 10	0.1 to 1	> 10	0.1 to 1	Cc1cnc2c(N3CCNCC3)ccc(C(=O)Nc3cc(F)c4nc(C)cn4c3)c2n1 [Compound 197, N-{8-fluoro-2-methylimidazo[1,2-a]pyridin-6-yl}-3-methyl-8-(piperazin-1-yl)quinoxaline-5-carboxamide; trifluoroacetic acid]
0.1 to 1	0.1 to 1	> 10	< 0.1	COc1cnc2c(N3CCNCC3)ccc(C(=O)Nc3cc(F)c4nc(C)cn4c3)c2n1 [Compound 207, N-{8-fluoro-2-methylimidazo[1,2-a]pyridin-6-yl}-3-methoxy-8-(piperazin-1-yl)quinoxaline-5-carboxamide; bis(trifluoroacetic acid)]
> 10	1 to 10	> 10	0.1 to 1	COCCOc1cc2c(N3CCNCC3)ccc(C(=O)Nc3cc(F)c4nc(C)cn4c3)c2nn1 [Compound 199, N-{8-fluoro-2-methylimidazo[1,2-a]pyridin-6-yl}-3-(2-methoxyethoxy)-5-(piperazin-1-yl)cinnoline-8-carboxamide]
0.1 to 1	0.1 to 1	0.1 to 1	< 0.1	COc1cnc2c(N3C[C@@H](C)N[C@@H](C)C3)ccc(C(=O)Nc3cc(F)c4nc(C)cn4c3)c2n1 [Compound 205, 8-[(3R,5S)-3,5-dimethylpiperazin-1-yl]-N-{8-fluoro-2-methylimidazo[1,2-a]pyridin-6-yl}-3-methoxyquinoxaline-5-carboxamide; trifluoroacetic acid]
> 10	> 10	> 10	1 to 10	Cc1cn2cc(NC(=O)c3ccc(N4CCN(CCF)C5(CC5)C4)c4nccnc34)cc(F)c2n1 [Compound 370]
1 to 10	1 to 10	1 to 10	0.1 to 1	Cc1cn2cc(NC(=O)c3ccc(N4CCNCC4)c4ccnnc34)cc(C)c2n1 [Compound 125]
1 to 10	1 to 10	1 to 10	0.1 to 1	Cc1cn2cc(NC(=O)c3ccc(N4CCN(C)CC4)c4ccnnc34)cc(F)c2n1 [Compound 127]
1 to 10	0.1 to 1	1 to 10	0.1 to 1	Cc1cn2cc(NC(=O)c3ccc(N4CC5(CNC5)C4)c4ccnnc34)cc(F)c2n1 [Compound 131]
0.1 to 1	0.1 to 1	0.1 to 1	< 0.1	COc1ncc2c(N3C[C@@H](C)N[C@@H](C)C3)ccc(C(=O)Nc3cn4cc(C)nc4c(OC)n3)c2n1 [Compound 378]
> 10	> 10	> 10	1 to 10	Cc1cn2cc(NC(=O)c3ccc(N4CCNC5(COC5)C4)c4nccnc34)cc(F)c2n1 [Compound 372]
1 to 10	1 to 10	> 10	< 0.1	Cc1cn2cc(NC(=O)c3ccc(N4C[C@@H](C)N[C@@H](C)C4)c4nccnc34)cc(F)c2n1 [Compound 186, 8-(3,5-dimethylpiperazin-1-yl)-N-{8-fluoro-2-methylimidazo[1,2-a]pyridin-6-yl}quinoxaline-5-carboxamide]
> 10	> 10	1 to 10	< 0.1	COCCOc1ccc2c(N3CCNCC3)ccc(C(=O)Nc3cc(F)c4nc(C)cn4c3)c2n1 [Compound 173, N-{8-fluoro-2-methylimidazo[1,2-a]pyridin-6-yl}-2-(2-methoxyethoxy)-5-(piperazin-1-yl)quinoline-8-carboxamide]
> 10	> 10	> 10	1 to 10	CCc1cc(NC(=O)c2ccc(N3CCNCC3)c3ccnnc23)nn2cc(C)nc12 [Compound 168, N-{8-ethyl-2-methylimidazo[1,2-b]pyridazin-6-yl}-5-(piperazin-1-yl)cinnoline-8-carboxamide trifluoroacetic acid salt]
0.1 to 1	0.1 to 1	1 to 10	< 0.1	Cc1cn2cc(NC(=O)c3ccc(N4CCNC(C)C4)c4ccnnc34)cc(F)c2n1 (stereo not shown) [Compound 128]

SMILES	IC50 (HTT mRNA) [µM]	IC50 (HiBiT-tagged HTT protein) [µM]	IC50 (Target C mRNA) [µM]	IC50 (MYB mRNA) [µM]
Cc1cn2cc(NC(=O)c3ccc(N4C[C@H]5CC[C@@H](C4)N5)c4ccnnc34)cc(F)c2n1 [Compound 108]	1 to 10	1 to 10	1 to 10	0.1 to 1
